From US20120132797A1, “MEANS AND METHODS FOR DIAGNOSING THYROID DISORDERS” (BASF SE, priority 2009, published 2012)

Tested on: Wistar (Crl:WI(Han)) rats
Test: Mass spectrometry-based plasma metabolite profiling of rats treated with known inducers of thyroid function impairment
Assay type: in vivo, rat
Details: ratio of group medians vs controls
From the text: At the beginning of the study the animals were 10-11 weeks old. Each dose group in the studies consisted of five rats per sex, and was compared with controls (10 rats per sex). […] The dose levels were chosen to show the typical overt (high dose) and slight (low dose) toxicological symptoms of the substances as described in the literature or in BASF internal study reports.
Blood samples were withdrawn from the retro-orbital sinus in all rats under isoflurane anesthesia on study days 7, 14 and 28 after a fasting period of 16-20 hours.
For mass spectrometry-based metabolite profiling analysis, plasma samples were extracted by a proprietary method which delivers a polar and a non-polar fraction. For GC-MS analysis, the non-polar fraction was treated with methanol under acidic conditions to yield the fatty acid methyl esters. Both fractions were further derivatised with Omethyl-hydroxyamine hydrochloride and pyridine to convert oxo groups to Omethyloximes and subsequently with a silylating agent before analysis.
In LC-MS/MS analysis, both fractions were reconstituted in appropriate solvent mixtures. HPLC was performed by gradient elution on reversed phase separation columns. For mass spectrometric detection metanomics proprietary technology was applied, which allows target and high sensitivity MRM (Multiple Reaction Monitoring) profiling in parallel to a full screen analysis. […] Moreover, several hundred additional analytes giving a fingerprint of the sample were included in the methods.
Following comprehensive analytical validation steps, the data for each analyte were normalized against data from pool samples. These samples were run in parallel through the whole process to account for process variability.
The sex- and day-stratified heteroscedastic t-test (“Welch test”) was applied to compare treated groups with respective controls. p-Values and ratios of corresponding group medians were collected as metabolic profiles and fed into a database.

[1] = female rats, fh7 (study day 7), Table 3
[2] = female rats, fh14 (study day 14), Table 3
[3] = female rats, fh28 (study day 28), Table 3
[4] = female rats, fh7 (study day 7), Table 1
[5] = female rats, fh14 (study day 14), Table 1
[6] = female rats, fh28 (study day 28), Table 1
[7] = male rats, mh7 (study day 7), Table 2
[8] = male rats, mh7 (study day 7), Table 4
[9] = male rats, mh14 (study day 14), Table 2
[10] = male rats, mh14 (study day 14), Table 4
[11] = male rats, mh28 (study day 28), Table 2
[12] = male rats, mh28 (study day 28), Table 4

For `Cc1ncc[nH]1` [2-Methylimidazole], the “Arachidonic acid (C20:cis[58,11,14]4)” value [1] was 1.04, the “Behenic acid (C22:0)” value [1] was 1.34 and the Cholesterol [1] was 1.14. The Cysteine [1] was 0.70, the “Docosahexaenoic acid (C22:cis[4,7,10,13,16,19]6)” value [1] was 1.37 and the Dodecanol [1] was 1.06. The “Eicosanoic acid (C20:0)” value [1] was 1.06, the Glycerol phosphate [1] was 1.21 and the “Heptadecanoic acid (C17:0)” value [1] was 1.14. For the same compound, the “Linoleic acid (C18:cis[9,12]2)” value [1] was 1.19, the “Nervonic acid C24:(cis[15]1)” value [1] was 1.11 and the “Palmitic acid (C16:0)” value [1] was 1.21. The “Sphingomyelin (d18:1, C16:0)” value [1] was 1.34, the “Stearic acid (C18:0)” value [1] was 0.99 and the Threonic acid [1] was 1.45. The “dihomo-gamma-Linolenic acid (C20:cis[8,11,14]3)” value (“dihomo-gamma-Linolenic acid” below) [1] was 0.83, the erythro-Sphingosine [1] was 1.38 and the “gamma-Linolenic acid (C18:cis[6,9,12]3)” value [1] was 0.91. The myo-Inositol-2-phosphate [1] was 1.61, the threo-Sphingosine [1] was 1.28 and the “Arachidonic acid (C20:cis[58,11,14]4)” value [2] was 1.20. The “Behenic acid (C22:0)” value [2] was 1.25, the Cholesterol [2] was 1.41 and the Cysteine [2] was 0.63. For the same compound, the “Docosahexaenoic acid (C22:cis[4,7,10,13,16,19]6)” value [2] was 1.42, the Dodecanol [2] was 1.11 and the “Eicosanoic acid (C20:0)” value [2] was 1.34. For the same compound, the Glycerol phosphate [2] was 1.26, the “Heptadecanoic acid (C17:0)” value [2] was 1.27 and the “Linoleic acid (C18:cis[9,12]2)” value [2] was 1.27. For the same compound, the “Nervonic acid C24:(cis[15]1)” value [2] was 1.52, the “Palmitic acid (C16:0)” value [2] was 1.30 and the “Sphingomyelin (d18:1, C16:0)” value [2] was 1.26. For the same compound, the “Stearic acid (C18:0)” value [2] was 1.02, the Threonic acid [2] was 1.26 and the “dihomo-gamma-Linolenic acid” value [2] was 1.53. For the same compound, the erythro-Sphingosine [2] was 1.61, the “gamma-Linolenic acid (C18:cis[6,9,12]3)” value [2] was 1.67 and the myo-Inositol-2-phosphate [2] was 1.60. The threo-Sphingosine [2] was 1.63, the “Arachidonic acid (C20:cis[58,11,14]4)” value [3] was 1.36 and the “Behenic acid (C22:0)” value [3] was 1.34. The Cholesterol [3] was 1.55, the Cysteine [3] was 0.76 and the “Docosahexaenoic acid (C22:cis[4,7,10,13,16,19]6)” value [3] was 1.27. For the same compound, the Dodecanol [3] was 1.05, the “Eicosanoic acid (C20:0)” value [3] was 1.15 and the Glycerol phosphate [3] was 1.26. For the same compound, the “Heptadecanoic acid (C17:0)” value [3] was 1.38, the “Linoleic acid (C18:cis[9,12]2)” value [3] was 1.21 and the “Nervonic acid C24:(cis[15]1)” value [3] was 1.74. The “Palmitic acid (C16:0)” value [3] was 1.44, the “Sphingomyelin (d18:1, C16:0)” value [3] was 1.27 and the “Stearic acid (C18:0)” value [3] was 1.17. The Threonic acid [3] was 0.98, the “dihomo-gamma-Linolenic acid” value [3] was 1.26 and the erythro-Sphingosine [3] was 1.69. The “gamma-Linolenic acid (C18:cis[6,9,12]3)” value [3] was 2.30, the myo-Inositol-2-phosphate [3] was 1.70 and the threo-Sphingosine [3] was 1.66.

`Cn1cc[nH]c1=S` [Methimazole] was tested, and the 5-O-Methylsphingosine [4] was 3.55, the Asparagine [4] was 1.17 and the “Behenic acid (C22:0)” value [4] was 2.08. The Citrate [4] was 0.83, the “Docosahexaenoic acid (C22:cis[4,7,10,13,16]6)” value [4] was 2.16 and the Glycine [4] was 1.14. The Ketoleucine [4] was 0.86, the “Lysophosphatidylcholine (C18:2)” value [4] was 1.52 and the “Phosphatidylcholine (C16:1, C18:2)” value [4] was 1.89. For the same compound, the “Phosphatidylcholine (C18:2, C20:4)” value [4] was 1.39, the Pyruvate [4] was 0.62 and the “Tricosanoic acid (C23:0)” value [4] was 2.05. The erythro-Sphingosine [4] was 2.56, the threo-Sphingosine [4] was 2.46 and the “Sphingomyelin (d18:1, C16:0)” value (female rats, fh7 (study day 7), Table 1, first listing) was 1.89. For the same compound, the “Sphingomyelin (d18:1, C16:0)” value (female rats, fh7 (study day 7), Table 1, second listing) was 1.45, the 5-O-Methylsphingosine [5] was 3.80 and the Asparagine [5] was 1.12. The “Behenic acid (C22:0)” value [5] was 2.63, the Citrate [5] was 0.76 and the “Docosahexaenoic acid (C22:cis[4,7,10,13,16]6)” value [5] was 1.32. The Glycine [5] was 1.14, the Ketoleucine [5] was 0.80 and the “Lysophosphatidylcholine (C18:2)” value [5] was 1.57. For the same compound, the “Phosphatidylcholine (C16:1, C18:2)” value [5] was 2.40, the “Phosphatidylcholine (C18:2, C20:4)” value [5] was 1.25 and the Pyruvate [5] was 0.53. For the same compound, the “Tricosanoic acid (C23:0)” value [5] was 2.54, the erythro-Sphingosine [5] was 3.21 and the threo-Sphingosine [5] was 3.21. The “Sphingomyelin (d18:1, C16:0)” value (female rats, fh14 (study day 14), Table 1, first listing) was 2.54, the “Sphingomyelin (d18:1, C16:0)” value (female rats, fh14 (study day 14), Table 1, second listing) was 1.44 and the 5-O-Methylsphingosine [6] was 2.83. The Asparagine [6] was 1.12, the “Behenic acid (C22:0)” value [6] was 2.03 and the Citrate [6] was 0.84. For the same compound, the “Docosahexaenoic acid (C22:cis[4,7,10,13,16]6)” value [6] was 1.22, the Glycine [6] was 1.28 and the Ketoleucine [6] was 0.78. For the same compound, the “Lysophosphatidylcholine (C18:2)” value [6] was 1.31, the “Phosphatidylcholine (C16:1, C18:2)” value [6] was 2.21 and the “Phosphatidylcholine (C18:2, C20:4)” value [6] was 1.33. For the same compound, the Pyruvate [6] was 0.79, the “Tricosanoic acid (C23:0)” value [6] was 1.96 and the erythro-Sphingosine [6] was 2.44. The threo-Sphingosine [6] was 2.37, the “Sphingomyelin (d18:1, C16:0)” value (female rats, fh28 (study day 28), Table 1, first listing) was 1.77 and the “Sphingomyelin (d18:1, C16:0)” value (female rats, fh28 (study day 28), Table 1, second listing) was 1.31. For the same compound, the 3-O-Methylsphingosine [7] was 3.47, the 5-O-Methylsphingosine [7] was 3.57 and the 14-Methyl-Pentadecanoic acid [7] was 1.13. For the same compound, the 17-Methyloctadecanoic acid [7] was 1.36, the Arginine [7] was 1.09 and the Cholesterol [7] was 1.98. For the same compound, the Citrate [7] was 0.69, the “Dihom-gamma-Linolenic acid (C20:cis[8,11,14]3)” value (shortened to “Dihom-gamma-Linolenic acid”) [7] was 2.38 and the “Lignoceric acid (C24:0)” value [7] was 2.12. For the same compound, the Phytosphingosine [7] was 2.08, the “Sphingomyelin (d18:1, C16:0)” value [7] was 2.24 and the “Tricosanoic acid (C23:0)” value [7] was 1.93. The alpha-Tocopherol [7] was 1.76, the erythro-Sphingosine [7] was 2.92 and the threo-Sphingosine [7] was 3.02. The Glutamate (male rats, mh7 (study day 7), Table 2, first listing) was 0.61, the Glutamate (male rats, mh7 (study day 7), Table 2, second listing) was 0.75 and the “Behenic acid (C22:0)” value [8] was 2.02. For the same compound, the Cholesterol [8] was 1.69, the Citrate [8] was 0.69 and the Cytosine [8] was 0.65. The “Galactose, lipid fraction” value [8] was 1.60, the Glycerol phosphate [8] was 2.09 and the Glycine [8] was 1.42. For the same compound, the “Lignoceric acid (C24:0)” value [8] was 2.12, the Mannose [8] was 1.06 and the “Nervonic acid C24:(cis[15]1)” value [8] was 2.59. The “Phospha-tidylcholine (C18:0, 18:2)” value [8] was 1.11, the “Sphingomyelin (d18:1, C16:0)” value [8] was 2.24 and the “Stearic acid (C18:0)” value [8] was 1.34. For the same compound, the Threonic acid [8] was 0.72, the “dihomo-gamma-Linolenic acis (C20:cis[8,11,14]3)” value (“dihomo-gamma-Linolenic acis” below) [8] was 2.38 and the erythro-Sphingosine [8] was 2.92. For the same compound, the myo-Inositol-2-phosphate [8] was 2.55, the threo-Sphingosine [8] was 3.02 and the 3-O-Methylsphingosine [9] was 3.85. The 5-O-Methylsphingosine [9] was 4.15, the 14-Methyl-Pentadecanoic acid [9] was 0.85 and the 17-Methyloctadecanoic acid [9] was 0.92. For the same compound, the Arginine [9] was 1.09, the Cholesterol [9] was 2.31 and the Citrate [9] was 0.69. For the same compound, the “Dihom-gamma-Linolenic acid” value [9] was 3.22, the “Lignoceric acid (C24:0)” value [9] was 2.82 and the Phytosphingosine [9] was 2.92. The “Sphingomyelin (d18:1, C16:0)” value [9] was 2.27, the “Tricosanoic acid (C23:0)” value [9] was 2.69 and the alpha-Tocopherol [9] was 2.66. The erythro-Sphingosine [9] was 3.71, the threo-Sphingosine [9] was 3.78 and the Glutamate (male rats, mh14 (study day 14), Table 2, first listing) was 0.57. For the same compound, the Glutamate (male rats, mh14 (study day 14), Table 2, second listing) was 0.49, the “Behenic acid (C22:0)” value [10] was 3.03 and the Cholesterol [10] was 1.93. For the same compound, the Citrate [10] was 0.69, the Cytosine [10] was 0.46 and the “Galactose, lipid fraction” value [10] was 1.46. For the same compound, the Glycerol phosphate [10] was 1.67, the Glycine [10] was 1.25 and the “Lignoceric acid (C24:0)” value [10] was 2.82. The Mannose [10] was 1.04, the “Nervonic acid C24:(cis[15]1)” value [10] was 3.00 and the “Phospha-tidylcholine (C18:0, 18:2)” value [10] was 1.28. For the same compound, the “Sphingomyelin (d18:1, C16:0)” value [10] was 2.27, the “Stearic acid (C18:0)” value [10] was 1.40 and the Threonic acid [10] was 0.69. The “dihomo-gamma-Linolenic acis” value [10] was 3.22, the erythro-Sphingosine [10] was 3.71 and the myo-Inositol-2-phosphate [10] was 2.35. For the same compound, the threo-Sphingosine [10] was 3.78, the 3-O-Methylsphingosine [11] was 4.55 and the 5-O-Methylsphingosine [11] was 3.40. The 14-Methyl-Pentadecanoic acid [11] was 0.54, the 17-Methyloctadecanoic acid [11] was 0.45 and the Arginine [11] was 1.14. The Cholesterol [11] was 2.03, the Citrate [11] was 0.73 and the “Dihom-gamma-Linolenic acid” value [11] was 2.02. The “Lignoceric acid (C24:0)” value [11] was 2.16, the Phytosphingosine [11] was 3.04 and the “Sphingomyelin (d18:1, C16:0)” value [11] was 1.92. For the same compound, the “Tricosanoic acid (C23:0)” value [11] was 2.50, the alpha-Tocopherol [11] was 2.18 and the erythro-Sphingosine [11] was 3.47. It also gave a threo-Sphingosine [11] of 4.30, a Glutamate (male rats, mh28 (study day 28), Table 2, first listing) of 0.46 and a Glutamate (male rats, mh28 (study day 28), Table 2, second listing) of 0.40. For the same compound, the “Behenic acid (C22:0)” value [12] was 3.01, the Cholesterol [12] was 1.56 and the Citrate [12] was 0.73. For the same compound, the Cytosine [12] was 0.39, the “Galactose, lipid fraction” value [12] was 1.53 and the Glycerol phosphate [12] was 1.46. For the same compound, the Glycine [12] was 0.98, the “Lignoceric acid (C24:0)” value [12] was 2.16 and the Mannose [12] was 0.87. For the same compound, the “Nervonic acid C24:(cis[15]1)” value [12] was 2.23, the “Phospha-tidylcholine (C18:0, 18:2)” value [12] was 1.35 and the “Sphingomyelin (d18:1, C16:0)” value [12] was 1.92. The “Stearic acid (C18:0)” value [12] was 1.16, the Threonic acid [12] was 0.69 and the “dihomo-gamma-Linolenic acis” value [12] was 2.02. For the same compound, the erythro-Sphingosine [12] was 3.47, the myo-Inositol-2-phosphate [12] was 1.85 and the threo-Sphingosine [12] was 4.30.
